From patent EP4653008A1, “TRADITIONAL CHINESE MEDICINE COMPOSITION HAVING EFFICACY IN TREATING COLDS AND USE THEREOF” (Shijiazhuang Yiling Pharmaceutical Co., Ltd., priority 2023, dated 2024)

Assays:
SD rats = test: fever in rats induced by intraperitoneal injection of LPS; assay type: in vivo; settings: 3h after LPS, 26.64 mg/kg
IL-1β = IL-1β in tissues (ELISA), coxsackievirus infection model of young rats
Coxsackievirus B3 (CVB3) [1] = test: viral load in gastrointestinal tissues, coxsackievirus infection model of young rats; assay type: in vivo, young SD rats
Description: Each group consisted of 50 animals.
Homogenization was carried out using a high-speed homogenizer to prepare a tissue suspension. The suspension was centrifuged at 14000 rpm for 10 min at 4°C and the resulting supernatant was collected. RNA was extracted using the RNA extraction solution, and the extracted RNA was reverse transcribed into c-DNA. The fluorescence intensity of c-DNA obtained by reverse transcription was measured by using absolute quantitative PCR, and the fluorescence intensity of c-DNA was used to reflect the load of coxsackievirus B3 in the tissues of the stomach, small intestine, and large intestine.

IFN-γ = IFN-γ in tissues (ELISA), coxsackievirus infection model of young rats
TNF-α = TNF-α in tissues (ELISA), coxsackievirus infection model of young rats
Coxsackievirus B3 (CVB3) [2] = test: pathological changes of gastrointestinal tract, coxsackievirus infection model of young rats; settings: animals with this lesion grade (n=10), 120.7 mg/kg
[3] = tested on: lymphocyte (CD4^+ and CD8^+); test: lymphocytes in blood (flow cytometry), coxsackievirus infection model of young rats; settings: 120.7mg/kg; for CD4^+/CD8^+: ratio
IL-10 = IL-10 in tissues (ELISA), coxsackievirus infection model of young rats
ICR mice [4] = test: ear-swelling in mice caused by xylene; assay type: in vivo; settings: 0.50g/kg
Description: Referring to the specification and literature documents, the dose of aspirin drug administered to mice was set at 0.50 g/kg, as shown in Table 25.
(§1) A disposable syringe was used to administer the drug at a dosing volume of 10 ml/kg. Animals in the model group were administered with a corresponding volume of the solvent. The administration was carried out for 5 days.
After receiving new experimental animals, they were numbered and subjected to an adaptive feeding for at least 5 days. The grouping was carried out as described previously. 0.5 h after the last administration, the animal was fixed, and the right ear was exposed. The xylene was applied to the middle area of the right ear of the mice by dropwise addition using a pipette, with each 15 µL of xylene applied to dorsal and ventral sides and spread evenly. The left ear was left untreated. After 40 min, the animal was sacrificed by cervical dislocation. Both ears were then cut along the base of the auricle. A punch (7 mm diameter) was used to obtain symmetrical ear tissues from both ears, which were weighed on a precision analytical balance. The weights were recorded, and the degree of swelling and the swelling inhibition rate were calculated. Swelling degree = weight of the right ear tissue - weight of the left ear tissue [formula] [formula]

MDCK = test: in vitro cytotoxicity (CCK-8); assay type: cell-based, canine; settings: Canis lupus familiaris; MDCK cells; 72 h; n=3
Description: • (1) Test Grouping: The appropriate starting concentration of the pharmaceutical composition was selected for test grouping according to the references. All the pharmaceutical compositions were diluted with serum-free DMEM medium. For the cell control group, only serum-free DMEM medium was used. […] For the positive control drug group, oseltamivir acid as a positive drug was set up at concentrations of 1000, 500, 250, 125, 62.5, and 31.25 µM. […] Recombinant human interferon α2b gel as a positive drug was set up at final concentrations of 1000, 333.33, 111.11, […], 33.33, and 11.11 IU/mL. The blank control group contained only serum-free DMEM medium and no cells. Three replicate wells were set up for each concentration in each group. • (2) Cell Plating: Cells were prepared into a suspension single cells (1×10^4 cells/mL), seeded to a 96-well cell culture plate (100 µL/well), and incubated overnight in a 37°C, 5% CO2 incubator. • (3) Addition of Drug and Test: The culture medium was discarded and the cells were washed twice with 1×PBS. […] After cells were incubated in the incubator for 1-4 h, the OD450 nm value was read using a microplate reader. The inhibition rate of cells and the half maximal inhibitory concentration (IC50) of the tested drugs on cells were calculated. […]

influenza B virus (IBV) = test: in vitro antiviral assay (CPE, CCK-8); assay type: cell-based; settings: MDCK host cells, n=4
H1HeLa = test: cells; assay type: cell-based; settings: Homo sapiens, H1-HeLa, 72 h, n=3
influenza A virus (H3N2) = test: in vitro antiviral assay (CPE, CCK-8); assay type: cell-based; settings: MDCK host cells, n=4
ICR mice [5] = test: writhing in mice caused by acetic acid; assay type: in vivo; settings: 5.00 mg/kg
Description: Referring to the previous studies in our laboratory and relevant literatures, the dose of indomethacin drug administered to mice was set at 5.00 mg/kg, as shown in Table 23.
as §1
After receiving new experimental animals, they were numbered, subjected to an adaptive feeding for 5 days and grouped as described above. All animals were fasted for more than 12 h before the last administration, and 1 h after the last administration, 0.7% acetic acid was injected into the abdominal cavity of mice at a dose of 10ml/kg to stimulate the visceral and parietal peritoneum, leading to a deep, widespread, and long-time pain. […] The latency period to the onset of writhing and the number of writhing incidents within 15 min were recorded as quantitative indicators of pain.

[6] = 3 days after administration, 120.7 mg/kg
[7] = next day after last administration, 120.7mg/kg
[8] = next day after last administration
[9] = next day after the last administration

Which “ΔT (ΔT =Tx-T0) °C” value (SD rats) does the source give for `CC(C)Cc1ccc(C(C)C(=O)O)cc1` (stereo not shown) [Ibuprofen] here?
Its value is 0.28 ± 0.48 °C.

For `NC(=O)c1ncn([C@@H]2O[C@H](CO)[C@@H](O)[C@H]2O)n1` [Ribavirin granule, Ribavirin], which “IL-1β Large intestine” value (IL-1β; D4, 120.7mg/kg) is on record?
Its value is 317 ± 18 pg/mg.

And the “IL-1β Small intestine” value (IL-1β; D4, 120.7mg/kg)?
Its value is 318 ± 23 pg/mg.

And the “IL-1β Stomach” value (IL-1β; D4, 120.7mg/kg)?
Its value is 291 ± 20 pg/mg.

And the “IL-1β Large intestine” value (IL-1β; D8, 120.7 mg/kg)?
The value was 320 ± 34 pg/mg.

And the “IL-1β Small intestine” value (IL-1β; D8, 120.7 mg/kg)?
Its value is 340 ± 21 pg/mg.

And the “IL-1β Stomach” value (IL-1β; D8, 120.7 mg/kg)?
The value was 308 ± 24 pg/mg.

What about the “viral load, Large intestine” value (Coxsackievirus B3 (CVB3) [1]; [6]) of the same compound?
The value was 515.92±226.55 Copies/mg.

What about the “viral load, Small intestine” value (Coxsackievirus B3 (CVB3) [1]; [6]) of the same compound?
The value was 947.76±811.44 Copies/mg.

And the “viral load, Stomach” value (Coxsackievirus B3 (CVB3) [1]; [6])?
Its value is 49.19±11.47 Copies/mg.

What about the “viral load, Large intestine” value (Coxsackievirus B3 (CVB3) [1]; [7]) of the same compound?
The value was 16346.45±20084.56 Copies/mg.

What about the “viral load, Small intestine” value (Coxsackievirus B3 (CVB3) [1]; [7]) of the same compound?
Its value is 308.03±198.76 Copies/mg.

What about the “viral load, Stomach” value (Coxsackievirus B3 (CVB3) [1]; [7]) of the same compound?
Its value is 104.75±74.10 Copies/mg.

And the “IFN-γ Large intestine” value (IFN-γ; D4, 120.7mg/kg)?
Its value is 18364 ± 1203 pg/mg.

What about the “IFN-γ Small intestine” value (IFN-γ; D4, 120.7mg/kg) of the same compound?
Its value is 16295 ± 865 pg/mg.

And the “IFN-γ Stomach” value (IFN-γ; D4, 120.7mg/kg)?
The value was 18235 ± 816 pg/mg.

And the “IFN-γ Large intestine” value (IFN-γ; D8, 120.7 mg/kg)?
The value was 19728 ± 926 pg/mg.

And the “IFN-γ Small intestine” value (IFN-γ; D8, 120.7 mg/kg)?
The value was 17443 ± 1296 pg/mg.

What about the “IFN-γ Stomach” value (IFN-γ; D8, 120.7 mg/kg) of the same compound?
The value was 16481 ± 1093 pg/mg.

And the “TNF-α Large intestine” value (TNF-α; D4, 120.7mg/kg)?
Its value is 2557 ± 100 pg/mg.

What about the “TNF-α Small intestine” value (TNF-α; D4, 120.7mg/kg) of the same compound?
Its value is 2806 ± 158 pg/mg.

What about the “TNF-α Large intestine” value (TNF-α; D8, 120.7 mg/kg) of the same compound?
The value was 2491 ± 151 pg/mg.

What about the “TNF-α Small intestine” value (TNF-α; D8, 120.7 mg/kg) of the same compound?
The value was 2698 ± 145 pg/mg.

What about the “TNF-α Stomach” value (TNF-α; D8, 120.7 mg/kg) of the same compound?
The value was 2731 ± 96 pg/mg.

And the “Cecum and rectum +” value (Coxsackievirus B3 (CVB3) [2]; 3 days after administration)?
The value was 3.

And the “Cecum and rectum + +” value (Coxsackievirus B3 (CVB3) [2]; 3 days after administration)?
The value was 0.

And the “Cecum and rectum -” value (Coxsackievirus B3 (CVB3) [2]; 3 days after administration)?
Its value is 7.

What about the “Duodenum and jejunum +” value (Coxsackievirus B3 (CVB3) [2]; 3 days after administration) of the same compound?
The value was 0.

What about the “Duodenum and jejunum + +” value (Coxsackievirus B3 (CVB3) [2]; 3 days after administration) of the same compound?
The value was 0.

What about the “Ileum and colon +” value (Coxsackievirus B3 (CVB3) [2]; 3 days after administration) of the same compound?
Its value is 2.

What about the “Ileum and colon + +” value (Coxsackievirus B3 (CVB3) [2]; 3 days after administration) of the same compound?
Its value is 3.

What about the “Ileum and colon -” value (Coxsackievirus B3 (CVB3) [2]; 3 days after administration) of the same compound?
Its value is 5.

And the “Stomach +” value (Coxsackievirus B3 (CVB3) [2]; 3 days after administration)?
The value was 9.

What about the “Stomach + +” value (Coxsackievirus B3 (CVB3) [2]; 3 days after administration) of the same compound?
Its value is 1.

What about the Stomach - (Coxsackievirus B3 (CVB3) [2]; 3 days after administration) of the same compound?
Its Stomach - is 0.

And the “Cecum and rectum +” value (Coxsackievirus B3 (CVB3) [2]; [8])?
The value was 5.

What about the “Cecum and rectum + +” value (Coxsackievirus B3 (CVB3) [2]; [8]) of the same compound?
The value was 2.

What about the “Cecum and rectum -” value (Coxsackievirus B3 (CVB3) [2]; [8]) of the same compound?
Its value is 3.

And the “Duodenum and jejunum +” value (Coxsackievirus B3 (CVB3) [2]; [8])?
The value was 0.

What about the “Duodenum and jejunum + +” value (Coxsackievirus B3 (CVB3) [2]; [8]) of the same compound?
Its value is 0.

What about the “Ileum and colon +” value (Coxsackievirus B3 (CVB3) [2]; [8]) of the same compound?
The value was 2.

And the “Ileum and colon + +” value (Coxsackievirus B3 (CVB3) [2]; [8])?
The value was 3.

And the “Ileum and colon -” value (Coxsackievirus B3 (CVB3) [2]; [8])?
Its value is 5.

And the “Stomach +” value (Coxsackievirus B3 (CVB3) [2]; [8])?
Its value is 5.

What about the “Stomach + +” value (Coxsackievirus B3 (CVB3) [2]; [8]) of the same compound?
The value was 0.

And the Stomach - (Coxsackievirus B3 (CVB3) [2]; [8])?
Its Stomach - is 5.

And the “% lymphocyte CD4^+” value ([3]; 3 days after administration)?
Its value is 33.31±8.66%.

And the “% lymphocyte CD8^+” value ([3]; 3 days after administration)?
The value was 20.52±5.91%.

What about the “% lymphocyte CD4^+” value [3, 9] of the same compound?
Its value is 22.69±4.04%.

What about the “% lymphocyte CD8^+” value [3, 9] of the same compound?
Its value is 11.40±2.18%.

What about the “CD4^+/CD8^+” value ([3]; 3 days after administration) of the same compound?
The value was 1.65±0.18.

And the “CD4^+/CD8^+” value [3, 9]?
Its value is 2.03±0.37.

What about the “IL-10 Large intestine” value (IL-10; D4, 120.7mg/kg) of the same compound?
Its value is 497 ± 28 pg/mg.

What about the “IL-10 Small intestine” value (IL-10; D4, 120.7mg/kg) of the same compound?
Its value is 473 ± 23 pg/mg.

And the “IL-10 Stomach” value (IL-10; D4, 120.7mg/kg)?
Its value is 509 ± 37 pg/mg.

And the “IL-10 Large intestine” value (IL-10; D8, 120.7 mg/kg)?
Its value is 496 ± 50 pg/mg.

How did the “Swelling degree” value (ICR mice [4]) turn out when `CC(=O)Oc1ccccc1C(=O)O` [Aspirin, aspirin] was run?
The value was 5.53 ± 2.81 mg.

And the “Swelling inhibition rate (%)” value (ICR mice [4])?
Its value is 50.34%.

Which IC50 (MDCK) does the source give for `CCC(CC)O[C@@H]1C=C(C(=O)O)C[C@H](N)[C@H]1NC(C)=O` [Oseltamivir acid, Oseltamivir Acid] here?
Its IC50 is greater than 1000 µM.

And the EC50 (influenza B virus (IBV))?
The EC50 was 0.0806 µM.

And the IC50 (H1HeLa)?
The IC50 was 1 µM.

What about the EC50 (influenza A virus (H3N2)) of the same compound?
Its EC50 is 0.931 µM.

Which “Latency period” value (ICR mice [5]; onset of writhing) does the source give for `COc1ccc2c(c1)c(CC(=O)O)c(C)n2C(=O)c1ccc(Cl)cc1` [Indomethacin, indomethacin] here?
Its value is 736.83 ± 258.16 s.

And the “Number of writhing incident” value (ICR mice [5]; within 15 min)?
The value was 2.17±4.53.
